# Target: T1, PMS2 protein (Homo sapiens, UniProt P54278)
# T1 construct: host or cells: SW620 human colorectal carcinoma cells
# T1 sequence (P54278 1-862): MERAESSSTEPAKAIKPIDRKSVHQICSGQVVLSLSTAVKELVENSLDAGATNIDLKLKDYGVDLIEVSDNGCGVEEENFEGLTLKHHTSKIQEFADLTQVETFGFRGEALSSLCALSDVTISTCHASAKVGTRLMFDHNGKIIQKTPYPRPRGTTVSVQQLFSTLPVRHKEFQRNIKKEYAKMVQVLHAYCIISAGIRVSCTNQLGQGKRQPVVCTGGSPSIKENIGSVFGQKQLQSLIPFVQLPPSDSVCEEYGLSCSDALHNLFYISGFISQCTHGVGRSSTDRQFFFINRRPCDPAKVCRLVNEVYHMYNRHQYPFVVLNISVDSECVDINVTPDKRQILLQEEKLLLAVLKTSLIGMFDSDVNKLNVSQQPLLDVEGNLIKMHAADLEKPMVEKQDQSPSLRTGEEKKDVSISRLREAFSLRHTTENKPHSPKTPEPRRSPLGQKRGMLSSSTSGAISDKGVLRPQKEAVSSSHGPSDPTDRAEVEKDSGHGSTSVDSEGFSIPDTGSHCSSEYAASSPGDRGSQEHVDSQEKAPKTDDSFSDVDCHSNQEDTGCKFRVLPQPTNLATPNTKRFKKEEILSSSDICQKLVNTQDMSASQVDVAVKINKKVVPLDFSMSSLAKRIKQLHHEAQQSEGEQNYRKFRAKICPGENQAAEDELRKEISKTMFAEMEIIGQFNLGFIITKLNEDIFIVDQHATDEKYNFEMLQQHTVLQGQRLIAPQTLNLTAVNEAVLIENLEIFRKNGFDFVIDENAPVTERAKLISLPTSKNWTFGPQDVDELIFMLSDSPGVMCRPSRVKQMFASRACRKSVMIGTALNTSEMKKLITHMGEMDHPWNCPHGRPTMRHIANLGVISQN
# Test: PROTAC screening in SW620 human colorectal carcinoma cells, PMS2 protein level by JESS Western blot
# Type: cell-based
# Conditions: SW-620, 24 h, 1 uM compound
# Protocol: PROTAC Screening Protocol Using SW620 Human Colorectal Carcinoma Cells
# SVW620 cells (ATCC/[…]) were cultured in T75 Falcon flasks in culture media (F12/DMEM 1:1 media, 10% FCS, +L-G supplement). Cells were split twice a week, for a maximum of 6 weeks. Media was aspirated, and cells washed with 10 mL of sterile PBS. PBS was aspirated, and cells incubated with 1.5 mL TrypLE for up to 5 minutes at 37° C., 5% CO2. Once cells had detached, TrypLE was neutralised with 10 mL culture media and cells mixed 1:1 with Trypan blue and quantified using a Luna cell counter. Cells were then seeded into fresh T75 flasks with 1×10^6 cells and 10 mL culture media.
# SW620 cells, cultured and counted as above, were used to seed 12 well plates at a density of 1.5×10^5 cells/well and incubated overnight at 37° C., 5% CO2. Test compounds were solubilized in DMSO to a stock concentration of 10 mM and serially diluted in DMSO and media to their test concentration; the final concentration of DMSO was 0.1% (v/v). Each concentration was tested in triplicate. SW620 cells were incubated with test compound for 24 hours at 37° C., 5% CO2. Media was aspirated from each well, and each well washed with 1 mL ice cold PBS. PBS was then aspirated, and 50 μL of cold lysis buffer (RIPA buffer supplemented with 1× protease inhibitors, Benzonase, MgCl) was added to each well; plates were then incubated on ice for 5 minutes. Cells were scraped using a pipette tip before being transferred to a fresh Eppendorf. Samples were spun at maximum speed in a benchtop centrifuge for 5 minutes at 4° C. and supernatant was then transferred to fresh tubes. Samples were stored at −80° C. until analysis.
# Bicinchonininic acid (BCA) protein assay standards (2-0.125 mg/mL BSA) were prepared in advance. 6 μL of each standard was pipetted in duplicate into rows A and B of a 384-well assay plate. Test samples were diluted in lysis buffer (1:3-1:10) in a 384-well plate in duplicate. BCA Reagents were combined 50:1, Part A:Part B and 50 μL added to each well. Plates were incubated for 30 min at 37° C. in a plate incubator and read using a BCA protein 384 protocol on an EnSpire plate reader. Protein concentrations were calculated from a standard curve.
# JESS Western Blot Protocol
# Protein lysates were prepared using Protein Simple EZ standard pack reagents: 40 μL distilled H2O was added to a DTT tube (clear) and treated with 20 μL 10× sample buffer and 20 μL DTT to 5×MM tube (pink). 20 μL dH2O was added to biotinylated ladder tube (green).
# Test samples were prepared by dilution to the required concentration (0.1 mg/mL) in 0.1× sample buffer. 1.25 μL 5× fluorescent master mix from the EZ standard pack was added to 5 μL sample for each lane to be loaded (e.g. 2.5 μL+10 μL if loading same sample into 2 wells). Samples were vortexed, briefly spun down and heated at 95° C. for 5 min in a PCR machine then vortexed again and briefly spun down before loading onto JESS cassettes (catalogue No: SM-W004) according to manufacturer's instructions (https://www.proteinsimple.com/technical_library.html?product=simplewestern&def_list=list). Protein expression was determined by the peak area of the target protein signal. Peak area of the target protein was normalised to peak area of the loading control (actin) and to DMSO control.
# [1] = normalised to actin and DMSO control, Table A1
Structure (SMILES),remaining activity at 1 µM [1] [%],"remaining activity at 1 µM (upon further testing, Table A2) [%]"
"Cc1c(O)cc(O)c(C(=O)N2Cc3ccc(CN4CCN(CCOCCOCCOCCNc5cccc6c5C(=O)N(C5CCC(=O)NC5=O)C6=O)CC4)cc3C2)c1OCc1ccccc1 (stereo not drawn) [Example 1, 4-((2-(2-(2-(2-(4-((2-(2-(Benzyloxy)-4,6-dihydroxy-3-methylbenzoyl)isoindolin-5-yl)methyl)piperazin-1-yl)ethoxy)ethoxy)ethoxy)ethyl)amino)-2-(2,6-dioxopiperidin-3-yl)isoindoline-1,3-dione]",10 to 25,–
"Cc1c(O)cc(O)c(C(=O)N2Cc3ccc(CN4CCN(CCOCCOCCNc5cccc6c5C(=O)N(C5CCC(=O)NC5=O)C6=O)CC4)cc3C2)c1OCc1ccccc1 (stereo not drawn) [Example 2, 4-((2-(2-(2-(4-((2-(2-(Benzyloxy)-4,6-dihydroxy-3-methylbenzoyl)isoindolin-5-yl)methyl)piperazin-1-yl)ethoxy)ethoxy)ethyl)amino)-2-(2,6-dioxopiperidin-3-yl)isoindoline-1,3-dione]",25 to 50,10 to 25
"Cc1c(O)cc(O)c(C(=O)N2Cc3ccc(CN4CCN(CCOCCOCCOCCOCCNc5cccc6c5C(=O)N(C5CCC(=O)NC5=O)C6=O)CC4)cc3C2)c1OCc1ccccc1 (stereo not drawn) [Example 3, 4-((14-(4-((2-(2-(Benzyloxy)-4,6-dihydroxy-3-methylbenzoyl)isoindolin-5-yl)methyl)piperazin-1-yl)-3,6,9,12-tetraoxatetradecyl)amino)-2-(2,6-dioxopiperidin-3-yl)isoindoline-1,3-dione]",10 to 25,–
"Cc1c(O)cc(O)c(C(=O)N2Cc3ccc(CN4CCN(CCOCCOCCOCCOCCOCCNc5cccc6c5C(=O)N(C5CCC(=O)NC5=O)C6=O)CC4)cc3C2)c1OCc1ccccc1 (stereo not drawn) [Example 4, 4-((17-(4-((2-(2-(Benzyloxy)-4,6-dihydroxy-3-methylbenzoyl)isoindolin-5-yl)methyl)piperazin-1-yl)-3,6,9,12,15-pentaoxaheptadecyl)amino)-2-(2,6-dioxopiperidin-3-yl)isoindoline-1,3-dione]",< 10,–
"Cc1c(O)cc(O)c(C(=O)N2Cc3ccc(CN4CCN(CCOCCOCCOCCNc5cccc6c5C(=O)N(C5CCC(=O)NC5=O)C6=O)CC4)cc3C2)c1OCC1CCCCC1 (stereo not drawn) [Example 5, 4-[2-[2-[2-[2-[4-[[2-[2-(Cyclohexylmethoxy)-4,6-dihydroxy-3-methyl-benzoyl]isoindolin-5-yl]methyl]piperazin-1-yl]ethoxy]ethoxy]ethoxy]ethylamino]-2-(2,6-dioxo-3-piperidyl)isoindoline-1,3-dione]",10 to 25,–
"Cc1c(O)cc(O)c(C(=O)N2Cc3ccc(CN4CCN(CCOCCOCCOCCOCCNc5cccc6c5C(=O)N(C5CCC(=O)NC5=O)C6=O)CC4)cc3C2)c1OCC1CCCCC1 (stereo not drawn) [Example 6, 4-[2-[2-[2-[2-[2-[4-[[2-[2-(Cyclohexylmethoxy)-4,6-dihydroxy-3-methyl-benzoyl]isoindolin-5-yl]methyl]piperazin-1-yl]ethoxy]ethoxy]ethoxy]ethoxy]ethylamino]-2-(2,6-dioxo-3-piperidyl)isoindoline-1,3-dione]",< 10,–
"Cc1c(O)cc(O)c(C(=O)N2Cc3ccc(CN4CCN(CCOCCOCCOCCOCCOCCNc5cccc6c5C(=O)N(C5CCC(=O)NC5=O)C6=O)CC4)cc3C2)c1OCC1CCCCC1 (stereo not drawn) [Example 7, 4-[2-[2-[2-[2-[2-[2-[4-[[2-[2-(Cyclohexylmethoxy)-4,6-dihydroxy-3-methyl-benzoyl]isoindolin-5-yl]methyl]piperazin-1-yl]ethoxy]ethoxy]ethoxy]ethoxy]ethoxy]ethylamino]-2-(2,6-dioxo-3-piperidyl)isoindoline-1,3-dione]",10 to 25,–
"Cc1c(O)cc(O)c(C(=O)N2Cc3ccc(CN4CCN(CCOCCOCCOCCOCCOCCOCCNc5cccc6c5C(=O)N(C5CCC(=O)NC5=O)C6=O)CC4)cc3C2)c1OCC1CCCCC1 (stereo not drawn) [Example 8, 4-[2-[2-[2-[2-[2-[2-[2-[4-[[2-[2-(Cyclohexylmethoxy)-4,6-dihydroxy-3-methyl-benzoyl]isoindolin-5-yl]methyl]piperazin-1-yl]ethoxy]ethoxy]ethoxy]ethoxy]ethoxy]ethoxy]ethylamino]-2-(2,6-dioxo-3-piperidyl)isoindoline-1,3-dione]",10 to 25,–

# Continued, values first:
remaining activity at 1 µM [1] [%],"remaining activity at 1 µM (upon further testing, Table A2) [%]",Structure (SMILES)
10 to 25,–,"Cc1c(O)cc(O)c(C(=O)N2Cc3ccc(CN4CCN(CCOCCOCCOCCOc5cccc6c5C(=O)N(C5CCC(=O)NC5=O)C6=O)CC4)cc3C2)c1OCc1ccccc1 (stereo not drawn) [Example 9, 4-(2-(2-(2-(2-(4-((2-(2-(Benzyloxy)-4,6-dihydroxy-3-methylbenzoyl)isoindolin-5-yl)methyl)piperazin-1-yl)ethoxy)ethoxy)ethoxy)ethoxy)-2-(2,6-dioxopiperidin-3-yl)isoindoline-1,3-dione]"
25 to 50,–,"Cc1c(O)cc(O)c(C(=O)N2Cc3ccc(CN4CCN(CCOCCOCCOc5cccc6c5C(=O)N(C5CCC(=O)NC5=O)C6=O)CC4)cc3C2)c1OCc1ccccc1 (stereo not drawn) [Example 10, 4-(2-(2-(2-(4-((2-(2-(Benzyloxy)-4,6-dihydroxy-3-methylbenzoyl)isoindolin-5-yl)methyl)piperazin-1-yl)ethoxy)ethoxy)ethoxy)-2-(2,6-dioxopiperidin-3-yl)isoindoline-1,3-dione]"
10 to 25,–,"Cc1c(O)cc(O)c(C(=O)N2Cc3ccc(CN4CCN(CCOCCOCCOCCOCCOc5cccc6c5C(=O)N(C5CCC(=O)NC5=O)C6=O)CC4)cc3C2)c1OCc1ccccc1 (stereo not drawn) [Example 11, 4-((14-(4-((2-(2-(Benzyloxy)-4,6-dihydroxy-3-methylbenzoyl)isoindolin-5-yl)methyl)piperazin-1-yl)-3,6,9,12-tetraoxatetradecyl)oxy)-2-(2,6-dioxopiperidin-3-yl)isoindoline-1,3-dione]"
10 to 25,< 10,"Cc1c(O)cc(O)c(C(=O)N2Cc3ccc(CN4CCN(CCOCCOCCOCCOCCOCCOc5cccc6c5C(=O)N(C5CCC(=O)NC5=O)C6=O)CC4)cc3C2)c1OCc1ccccc1 (stereo not drawn) [Example 12, 4-((17-(4-((2-(2-(Benzyloxy)-4,6-dihydroxy-3-methylbenzoyl)isoindolin-5-yl)methyl)piperazin-1-yl)-3,6,9,12,15-pentaoxaheptadecyl)oxy)-2-(2,6-dioxopiperidin-3-yl)isoindoline-1,3-dione]"
10 to 25,–,"Cc1c(O)cc(O)c(C(=O)N2Cc3ccc(CN4CCN(CCOCCOCCOCCNc5ccc6c(c5)C(=O)N(C5CCC(=O)NC5=O)C6=O)CC4)cc3C2)c1OCc1ccccc1 (stereo not drawn) [Example 13, 5-((2-(2-(2-(2-(4-((2-(2-(Benzyloxy)-4,6-dihydroxy-3-methylbenzoyl)isoindolin-5-yl)methyl)piperazin-1-yl)ethoxy)ethoxy)ethoxy)ethyl)amino)-2-(2,6-dioxopiperidin-3-yl)isoindoline-1,3-dione]"

# Reference: US20240425483A1, “INDOLINES AS PROTAC COMPOUNDS” (NeoPhore Limited, priority 2021, published 2024)
